Measured values from ChEMBL document CHEMBL4483862, “Open-source discovery of chemical leads for next-generation chemoprotective antimalarials” (2018).

System: Plasmodium berghei
Assay: Luciferase/luciferin-expressing antifolate-resistant parasites were used to infect a culture of HepG2 cells that were pre-incubated with compounds. Infected hepatocytes emit light due to the luciferase reaction. Assay results are presented as the percent inhibition of light emission compared to control. […]
Assay type: functional
Settings: sporozoite; for IC90: read-out: LUCIFERASE INFECTION ASSAY - IC90
[1] = read-out: LUCIFERASE INFECTION ASSAY - IC50

With `O=[N+]([O-])c1ccc(-c2[nH]nc(-c3ccccc3)c2-c2ccc3ccccc3n2)cc1` the IC50 (FFLUC_HILL_SLOPE 2.78, FFLUC_R_SQUARED 0.0561, HEPG2TOX_HILL_SLOPE 6.28, HEPG2TOX_R_SQUARED 0.62, PBLUC_HILL_SLOPE 3.02, PBLUC_R_SQUARED 0.452, read-out: LUCIFERASE INFECTION ASSAY - IC50) was 4.75 µM and the IC90 was 9.84 µM.
Molecule `O=C(Nc1cc(S(=O)(=O)N2CCCCCC2)ccc1OCC(F)(F)F)c1cccc2c[nH]nc12` has an IC50 [1] of over 10 µM and an IC90 of over 10 µM.
Molecule `NC(=O)c1ccc(C(F)(F)F)n(CC(=O)c2ccc3c(c2)OCCO3)c1=O` has an IC50 [1] of over 10 µM and an IC90 of over 10 µM.
In the case of `FC(F)Oc1ccc(-c2cs/c(=N\c3cccnc3)n2CC2CCCO2)cc1` (stereo unspecified), the IC50 [1] is reported as 4.16 µM and the IC90 is reported as over 10 µM.
For `Oc1ccccc1/C=N/Nc1cccc(C(F)(F)F)c1`, the IC50 (HEPG2TOX_HILL_SLOPE 6.57, HEPG2TOX_R_SQUARED 0.439, PBLUC_HILL_SLOPE 2.9, PBLUC_R_SQUARED 0.288, read-out: LUCIFERASE INFECTION ASSAY - IC50) was over 11.8 µM and the IC90 was over 11.8 µM.
For `Cc1nc(-c2ccc(C(C)Nc3cnn(-c4ccccc4)c(=O)c3Cl)cc2)cs1` (stereo unspecified), the IC50 (HEPG2TOX_HILL_SLOPE 2.7, HEPG2TOX_R_SQUARED 0.839, PBLUC_HILL_SLOPE 8.17, PBLUC_R_SQUARED 0.802, read-out: LUCIFERASE INFECTION ASSAY - IC50) was 3.88 µM and the IC90 was 5.07 µM.
`Cc1ccc2cccc(Oc3ncnc4scc(-c5ccccc5)c34)c2n1` was tested, and the IC50 (HEPG2TOX_HILL_SLOPE 0.0481, HEPG2TOX_R_SQUARED 0.388, PBLUC_HILL_SLOPE 1.34, PBLUC_R_SQUARED 0.656, read-out: LUCIFERASE INFECTION ASSAY - IC50) was 5.34 µM and the IC90 was over 10 µM.
`OCCCNc1nc(-c2ccccc2)nc2sc(-c3ccccc3)cc12` gave an IC50 [1] of over 10 µM and an IC90 of over 10 µM.
`COc1ccc(NS(=O)(=O)c2cc([N+](=O)[O-])ccc2N/N=C(\C)c2ccc(S(=O)(=O)NCc3ccco3)cc2)cc1` was tested, and the IC50 (HEPG2TOX_HILL_SLOPE 4.01, HEPG2TOX_R_SQUARED 0.968, PBLUC_HILL_SLOPE 8.16, PBLUC_R_SQUARED 0.206, read-out: LUCIFERASE INFECTION ASSAY - IC50) was 3.81 µM and the IC90 was 4.99 µM.
`COc1cc(C(=O)N/N=C2\C(=O)Nc3ccc(C(C)C)cc32)cc(OC)c1OC` showed an IC50 (FFLUC_HILL_SLOPE 15.7, FFLUC_R_SQUARED 0.417, HEPG2TOX_HILL_SLOPE 3.31, HEPG2TOX_R_SQUARED 0.963, PBLUC_HILL_SLOPE 2.41, PBLUC_R_SQUARED 0.374, read-out: LUCIFERASE INFECTION ASSAY - IC50) of 4.85 µM and an IC90 of over 10 µM.
Work on `C=CCNc1nc(Nc2ccc(OC)c(OC)c2)c2sc(-c3ccccc3)cc2n1` yielded an IC50 [1] of 3.61 µM and an IC90 of over 7.88 µM.
Work on `O=C(Nc1cccc(C(F)(F)F)c1)Nc1ncc([N+](=O)[O-])s1` yielded an IC50 (HEPG2TOX_HILL_SLOPE 2.24, HEPG2TOX_R_SQUARED 0.981, PBLUC_HILL_SLOPE 1.72, PBLUC_R_SQUARED 0.576, read-out: LUCIFERASE INFECTION ASSAY - IC50) of 0.759 µM and an IC90 of 2.73 µM.
With `C=CCNc1nnc(SCC(=O)Nc2c(Cl)cc(Cl)cc2C(=O)O)s1` the IC50 [1] was over 10 µM and the IC90 was over 10 µM.
`NC(=O)N1CCCC(C(=O)N2CCCC(c3nc4ccccc4s3)C2)C1` (stereo unspecified) gave an IC50 [1] of over 10 µM and an IC90 of over 10 µM.
For `Cc1sc2nc3n(c(=O)c2c1C)CC/C3=C/c1cccc2ccccc12`, the IC50 (HEPG2TOX_HILL_SLOPE 0.688, HEPG2TOX_R_SQUARED 0.114, PBLUC_HILL_SLOPE 1.25, PBLUC_R_SQUARED 0.514, read-out: LUCIFERASE INFECTION ASSAY - IC50) was 3 µM and the IC90 was over 10 µM.
`CC(C)c1nc2ccccc2n1Cc1cccc2ccccc12` was tested, and the IC50 (HEPG2TOX_HILL_SLOPE 2.18, HEPG2TOX_R_SQUARED 0.953, PBLUC_HILL_SLOPE 14.4, PBLUC_R_SQUARED 0.432, read-out: LUCIFERASE INFECTION ASSAY - IC50) was 3.58 µM and the IC90 was 4.17 µM.
`O=C(NCc1ccc(Oc2ccc(F)cc2)cc1)C1Cc2ccccc2O1` (stereo unspecified) was tested, and the IC50 (HEPG2TOX_HILL_SLOPE 1.58, HEPG2TOX_R_SQUARED 0.911, PBLUC_HILL_SLOPE 12.2, PBLUC_R_SQUARED 0.351, read-out: LUCIFERASE INFECTION ASSAY - IC50) was 3.21 µM and the IC90 was 3.84 µM.
In the case of `CNC(=O)c1ccc(S(=O)(=O)Nc2cccc(-c3nnnn3C)c2)cc1`, the IC50 [1] is reported as over 10 µM and the IC90 is reported as over 10 µM.
`Cc1nc(CSCC(=O)Nc2nc(-c3ccccn3)cs2)cs1` was tested, and the IC50 (PBLUC_HILL_SLOPE 39.1, PBLUC_R_SQUARED 0.364, read-out: LUCIFERASE INFECTION ASSAY - IC50) was 9.84 µM and the IC90 was over 10 µM.
In the case of `Cc1ccc2c(c1)CCCN2C(=S)Nc1cccc(C(F)(F)F)c1`, the IC50 [1] is reported as over 9.42 µM and the IC90 is reported as over 9.42 µM.
In the case of `C(=N\N1CCN(c2ccccn2)CC1)/C1=C(Sc2nc3ccccc3s2)CCCC1`, the IC50 (HEPG2TOX_HILL_SLOPE 7.72, HEPG2TOX_R_SQUARED 0.819, PBLUC_HILL_SLOPE 7.09, PBLUC_R_SQUARED 0.503, read-out: LUCIFERASE INFECTION ASSAY - IC50) is reported as 7.43 µM and the IC90 is reported as over 10 µM.
`O=C(Nc1ccc(-c2nc3ccccc3[nH]2)cc1)C1CCC1` was tested, and the IC50 (FFLUC_HILL_SLOPE 0.826, FFLUC_R_SQUARED 0.895, PBLUC_HILL_SLOPE 0.293, PBLUC_R_SQUARED 0.545, read-out: LUCIFERASE INFECTION ASSAY - IC50) was 0.543 µM and the IC90 was over 10 µM.
For `Cc1ccccc1/N=c1\scc(-c2ccc(Cl)cc2Cl)n1C(C)CCC(C)C` (stereo unspecified), the IC50 (PBLUC_HILL_SLOPE 3.23, PBLUC_R_SQUARED 0.321, read-out: LUCIFERASE INFECTION ASSAY - IC50) was 4.85 µM and the IC90 was 9.57 µM.
For `Cc1ccc2nc(NC(=O)c3ccc(Cl)cc3)c(C(=O)NC3CCCC3)n2c1`, the IC50 (HEPG2TOX_HILL_SLOPE 3.44, HEPG2TOX_R_SQUARED 0.175, PBLUC_HILL_SLOPE 15.5, PBLUC_R_SQUARED 0.331, read-out: LUCIFERASE INFECTION ASSAY - IC50) was 2.68 µM and the IC90 was 3.09 µM.
Molecule `Cc1ccccc1C(C)NC(=O)c1c[nH]c(=S)n1-c1ccccc1` (stereo unspecified) has an IC50 [1] of over 10 µM and an IC90 of over 10 µM.
Work on `CCOc1cccc(-c2cn3c(-c4ccc(OC)cc4)cnc3cn2)c1` yielded an IC50 (HEPG2TOX_HILL_SLOPE 0.801, HEPG2TOX_R_SQUARED 0.8, PBLUC_HILL_SLOPE 14.9, PBLUC_R_SQUARED 0.835, read-out: LUCIFERASE INFECTION ASSAY - IC50) of 0.324 µM and an IC90 of 0.375 µM.
`CCNC(=O)C1(C)CCCN1C(=O)c1ccc(OC)cc1` (stereo unspecified) was tested, and the IC50 [1] was over 11.4 µM and the IC90 was over 11.4 µM.
`CN(C)CCNc1nc2sc3c(c2c(=O)n1Cc1ccco1)CCCCC3` showed an IC50 (PBLUC_HILL_SLOPE 3.33, PBLUC_R_SQUARED 0.165, read-out: LUCIFERASE INFECTION ASSAY - IC50) of 4.36 µM and an IC90 of 8.43 µM.
With `COc1ccc(NC2=NC(=O)/C(=C/c3cc(C)n(-c4cccc(Cl)c4Cl)c3C)S2)cc1` the IC50 (PBLUC_HILL_SLOPE 2.19, 1.56, PBLUC_R_SQUARED 0.711, 0.979, read-out: LUCIFERASE INFECTION ASSAY - IC50) was 0.238 µM and the IC90 was 0.771 µM.
In the case of `O=[N+]([O-])c1cnc(Sc2nnc(-c3ccccc3)[nH]2)s1`, the IC50 [1] is reported as over 10.8 µM and the IC90 is reported as over 10.8 µM.
With `O=C(CN1CCN(C(=O)C2COc3ccccc3O2)CC1)Nc1ccccc1-c1ccccc1` (stereo unspecified) the IC50 [1] was over 10 µM and the IC90 was over 10 µM.
For `COc1cccc(NC(=O)c2cccc(C3(CNCc4ccccc4F)CC3)c2)c1`, the IC50 [1] was over 10 µM and the IC90 was over 10 µM.
`Cn1c2ccccc2c(=O)c2c(=O)n(CCc3ccccc3)c(-c3ccco3)nc21` gave an IC50 [1] of 2.64 µM and an IC90 of 5.38 µM.
`CCCCNC(=O)c1c(NC(=O)c2ccc(F)cc2F)nc2ccc(C)cn12` gave an IC50 (FFLUC_HILL_SLOPE 10.6, FFLUC_R_SQUARED 0.36, HEPG2TOX_HILL_SLOPE 2.09, HEPG2TOX_R_SQUARED 0.949, PBLUC_HILL_SLOPE 14.8, PBLUC_R_SQUARED 0.468, read-out: LUCIFERASE INFECTION ASSAY - IC50) of 2.6 µM and an IC90 of 3.01 µM.
For `Fc1ccc(/C=N/n2c(-c3ccc(Cl)cc3)cs/c2=N\CC2CCCO2)cc1` (stereo unspecified), the IC50 (PBLUC_HILL_SLOPE 2, PBLUC_R_SQUARED 0.363, read-out: LUCIFERASE INFECTION ASSAY - IC50) was 5.58 µM and the IC90 was over 10 µM.
`Cn1c(Nc2ccccc2)nc2cnc(-c3ccc4c(c3)OCO4)cc21` was tested, and the IC50 [1] was over 10 µM and the IC90 was over 10 µM.
With `O=C(NC1CC1)c1ccc(-c2cnc3cnc(-c4ccsc4)cn23)cc1` the IC50 (HEPG2TOX_HILL_SLOPE 0.0389, HEPG2TOX_R_SQUARED 0.0745, PBLUC_HILL_SLOPE 3.06, PBLUC_R_SQUARED 0.597, read-out: LUCIFERASE INFECTION ASSAY - IC50) was 7.19 µM and the IC90 was over 9.16 µM.
Molecule `Cc1csc(C(C#N)C(=O)COC(=O)c2ccccc2SCC(=O)N(C)C)n1` (stereo unspecified) has an IC50 [1] of over 10 µM and an IC90 of over 10 µM.
With `COCCCNc1nccc2nc(-c3cccc(OC(F)(F)F)c3)[nH]c12` the IC50 (HEPG2TOX_HILL_SLOPE 4.74, HEPG2TOX_R_SQUARED 0.77, PBLUC_HILL_SLOPE 3.71, PBLUC_R_SQUARED 0.224, read-out: LUCIFERASE INFECTION ASSAY - IC50) was 5.72 µM and the IC90 was over 10 µM.
`CCc1ccc(-c2csc(NC(=O)CCc3c(C)nc4nc(SC)nn4c3C)n2)cc1` gave an IC50 [1] of over 10 µM and an IC90 of over 10 µM.
`Clc1ccc(-c2csc3ncnc(NCc4ccc(N5CCOCC5)nc4)c23)cc1` showed an IC50 (HEPG2TOX_HILL_SLOPE 1.06, HEPG2TOX_R_SQUARED 0.974, PBLUC_HILL_SLOPE 2.24, PBLUC_R_SQUARED 0.328, read-out: LUCIFERASE INFECTION ASSAY - IC50) of 5.51 µM and an IC90 of over 10 µM.
`CCCCCc1ccc(C(=O)Nc2nc3ccc(C)cn3c2C(=O)NCCCC)cc1` showed an IC50 (PBLUC_HILL_SLOPE 2.82, PBLUC_R_SQUARED 0.514, read-out: LUCIFERASE INFECTION ASSAY - IC50) of 4.14 µM and an IC90 of over 7.85 µM.
`Cc1cccc(C(=O)Nc2ccccc2C(=O)OCC(=O)c2c[nH]c3ccccc23)c1` gave an IC50 [1] of over 10 µM and an IC90 of over 10 µM.
